According to publication PMC11589570, “Critical assessment of LC3/GABARAP ligands used for degrader development and ligandability of LC3/GABARAP binding pockets” (Nature Communications, 2024):
Several values for one entry are separate records, joined by “and”; a condition that tells them apart may be missing. Equal entries are not always repeated. Entries after “also recorded” stand apart in the source; their conditions may differ.

Columns and labels:
[1] = tested on: RPE-1 GFP-LC3B-RPF-LC3∆G reporter cell line; assay: Autophagy flux assay; assay type: cell-based; conditions: rebuttal letter
Source text: LC3/GABARAP in vitro, but no attempts are made to replicate the previously reported cellular activity of these compounds. It would be beneficial to know whether these compounds have any effect on autophagy in the authors’ hands, and therefore could act by alternative mechanisms, or whether they […]
Response: We were very concerned that the ligands used for ATTEC development might induce general toxicity in cell lines, as they are based on drugs used in oncology (such as the kinesin inhibitor 10O5) and the isoxazole scaffold often used in the development of multi-targeted kinase inhibitors. However, we have now investigated compounds 1-4 in autophagy flux assays using the RPE-1 GFP-LC3B-RPF-LC3∆G reporter cell line (single clone) as […]
reported in [PMID:37558952].
(RR_Figure 6). The authors of the first manuscript reporting these ligands [PMID: 31666698]
However, due to the potent activity of 8F20 on KIF11, which will have profound effects on cell trafficking and growth, and DCAF11 (AN1, [PMID: 38036533]), we find it unlikely that the effects on autophagy are due to LC3/GABARAP modulation. Due to the lack of target (LC3/GABARAP) binding in vitro and the […]
of this review but have excluded the data in the manuscript.
RR_figure 5: Autophagy flux measurement for 10O5 and AN2. No induction of autophagy or effects (right panels, assessed by Incucyte (Sartorius) life cell imaging) on cell growth was […]
RR_figure 6: Autophagy flux measurement for 8F20 and AN1 show changes in autophagy flux […]
It is not clear how many biological replicates have been performed. For example, the figure legends […]

RPE1 cells = assay: Cell growth assay (IncuCyte confluence over 72 h); assay type: cell-based; conditions: for RPE1 cell growth: listed as 8F20
Method in brief: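 Phase confluence (% area covered by cells) imaged every 2 h for 72 h after compound addition; cells in DMEM/10% FBS, seeded 24 h before treatment. Controls were 0.1% DMSO, 250 nM Torin1 and 200 ng/mL Bafilomycin (final). Each point averages three wells.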

LC3B = LC3B (Homo sapiens, UniProt Q9GZQ8); assay: FP assay with Cy5-labelled p62 LIR tracer (protein titration and tracer displacement); assay type: binding; conditions: for normalized FP signal, p62 LIR tracer displacement: LC3B; for compound titration LC3B (displacement curve, FP signal): two replicate columns per compound
[2] = log10 concentration [M] -3.82391
[3] = log10 concentration [M] -4.1549
[4] = log10 concentration [M] -4.60206
[5] = log10 concentration [M] -5.30103
[6] = log10 concentration [M] -5.69897
[7] = log10 concentration [M] -6.22185
[8] = log10 concentration [M] -6.69897
[9] = log10 concentration [M] -7.30103
[10] = log10 concentration [M] -7.79588
[11] = log10 concentration [M] -8.08092

`Cc1ccc(C(=O)N(CCCN)[C@@H](c2nc3cc(Cl)ccc3c(=O)n2Cc2ccccc2)C(C)C)cc1` [compound 3, (R)-N-(3-aminopropyl)-N-(1-(3-benzyl-7-chloro-4-oxo-3,4-dihydroquinazolin-2-yl)−2-methylpropyl)−4-methylbenzamide] was tested, and the “autophagy induction (autophagy flux)” value [1] was “significant autophagy activation”, the “effects on cell growth (Incucyte life cell imaging)” value [1] was “profound effects on cell growth” and the RPE1 cell growth (RPE1 cells; 500 nM, 34 h) was 24 and 12 and 17. The RPE1 cell growth (RPE1 cells; 500 nM, 36 h) was 23 and 14 and 18, the RPE1 cell growth (RPE1 cells; 500 nM, 38 h) was 23 and 14 and 19 and the RPE1 cell growth (RPE1 cells; 500 nM, 40 h) was 11 and 16 and 21. For the same compound, the RPE1 cell growth (RPE1 cells; 500 nM, 42 h) was 27 and 16 and 23, the RPE1 cell growth (RPE1 cells; 500 nM, 44 h) was 29 and 17 and 23 and the RPE1 cell growth (RPE1 cells; 500 nM, 46 h) was 31 and 17 and 24. For the same compound, the RPE1 cell growth (RPE1 cells; 500 nM, 48 h) was 32 and 17 and 25, the RPE1 cell growth (RPE1 cells; 500 nM, 54 h) was 33 and 17 and 28 and the RPE1 cell growth (RPE1 cells; 1 uM, 34 h) was 15 and 25 and 13. For the same compound, the RPE1 cell growth (RPE1 cells; 1 uM, 36 h) was 17 and 25 and 14, the RPE1 cell growth (RPE1 cells; 1 uM, 38 h) was 17 and 24 and 15 and the RPE1 cell growth (RPE1 cells; 1 uM, 40 h) was 18 and 20 and 17. The RPE1 cell growth (RPE1 cells; 1 uM, 42 h) was 22 and 27 and 16, the RPE1 cell growth (RPE1 cells; 1 uM, 44 h) was 22 and 28 and 18 and the RPE1 cell growth (RPE1 cells; 1 uM, 46 h) was 22 and 28 and 17. The RPE1 cell growth (RPE1 cells; 1 uM, 48 h) was 25 and 32 and 18, the RPE1 cell growth (RPE1 cells; 1 uM, 50 h) was 24 and 32 and 20 and the RPE1 cell growth (RPE1 cells; 1 uM, 54 h) was 29 and 33 and 21. The RPE1 cell growth (RPE1 cells; 1 uM, 56 h) was 28 and 34 and 21, the RPE1 cell growth (RPE1 cells; 1 uM, 58 h) was 30 and the RPE1 cell growth (RPE1 cells; 3 uM, 34 h) was 25 and 15 and 17. The RPE1 cell growth (RPE1 cells; 3 uM, 36 h) was 25 and 16 and 18, the RPE1 cell growth (RPE1 cells; 3 uM, 38 h) was 26 and 17 and 18 and the RPE1 cell growth (RPE1 cells; 3 uM, 40 h) was 23 and 18 and 19. The RPE1 cell growth (RPE1 cells; 3 uM, 42 h) was 29 and 18 and 23, the RPE1 cell growth (RPE1 cells; 3 uM, 44 h) was 28 and 20 and 21 and the RPE1 cell growth (RPE1 cells; 3 uM, 46 h) was 31 and 19 and 22. For the same compound, the RPE1 cell growth (RPE1 cells; 3 uM, 48 h) was 31 and 19 and 23, the RPE1 cell growth (RPE1 cells; 3 uM, 50 h) was 31 and 20 and 23 and the RPE1 cell growth (RPE1 cells; 3 uM, 52 h) was 25 and 22 and 24. The RPE1 cell growth (RPE1 cells; 3 uM, 54 h) was 31 and 21 and 25, the RPE1 cell growth (RPE1 cells; 3 uM, 56 h) was 34 and 19 and 25 and the RPE1 cell growth (RPE1 cells; 5 uM, 40 h) was 27 and 15 and 24. For the same compound, the “effect on cell growth (confluence)” value (RPE1 cells; RPE1, 72 h) was “significant growth reduction; also recorded: strongly suppressed cellular growth”, the “normalized FP signal, p62 LIR tracer displacement” value (“normalized FP signal” below) (LC3B; [2]) was 79.4737 and 100.789 and the “normalized FP signal” value (LC3B; [3]) was 91.0526 and 93.9474. The “normalized FP signal” value (LC3B; [4]) was 98.6842 and 96.3158, the “normalized FP signal” value (LC3B; log10 concentration [M] -5) was 92.3684 and 100.263 and the “normalized FP signal” value (LC3B; [5]) was 95.7895 and 96.5789. For the same compound, the “normalized FP signal” value (LC3B; [6]) was 95.5263 and 96.0526, the “normalized FP signal” value (LC3B; [7]) was 92.1053 and 92.3684 and the “normalized FP signal” value (LC3B; [8]) was 97.6316 and 96.5789. The “normalized FP signal” value (LC3B; [9]) was 93.1579 and 99.7368, the “normalized FP signal” value (LC3B; [10]) was 100.263 and 96.8421 and the “normalized FP signal” value (LC3B; [11]) was 95.2632 and 96.3158. The “compound titration LC3B (displacement curve, FP signal)” value (from here on “compound titration LC3B”) (LC3B; [2]) was 79.4737 and 100.789, the “compound titration LC3B” value (LC3B; [3]) was 91.0526 and 93.9474 and the “compound titration LC3B” value (LC3B; [4]) was 98.6842 and 96.3158. For the same compound, the “compound titration LC3B” value (LC3B; log10 concentration [M] -5) was 92.3684 and 100.263, the “compound titration LC3B” value (LC3B; [5]) was 95.7895 and 96.5789 and the “compound titration LC3B” value (LC3B; [6]) was 95.5263 and 96.0526. For the same compound, the “compound titration LC3B” value (LC3B; [7]) was 92.1053 and 92.3684, the “compound titration LC3B” value (LC3B; [8]) was 97.6316 and 96.5789 and the “compound titration LC3B” value (LC3B; [9]) was 93.1579 and 99.7368. For the same compound, the “compound titration LC3B” value (LC3B; [10]) was 100.263 and 96.8421 and the “compound titration LC3B” value (LC3B; [11]) was 95.2632 and 96.3158.
